{"source": "patent US20260207551A1", "about": "“PHOSPHOGLICERATE DEHYDROGENASE INHIBITORS FOR THE TREATMENT OF FIBROSIS” (CHIESI FARMACEUTICI S.P.A., priority 2022, published 2026)", "tested_on": "NHLFs", "experiment": "FBS induced proliferation of NHLFs (BrdU incorporation)", "assay_type": "cell-based, Human", "protocol": "Human normal lung fibroblasts (NHLFs) were purchased from Lonza (Basel, Switzerland). NHFLs were cultured in Eagle's Minimum Essential medium (EMEM) w/o serine and glycine, supplemented with 10% Fetal Bovine Serum (FBS), antibiotics (50 U/ml penicillin and 0.05 mg/ml streptomycin) and 2 mM L-glutamine, in an atmosphere of 95% air and 5% CO2 at 37° C. NHLFs cultures were used between passage 1 and 9. Before all the experiments, cells were incubated overnight in serum-free medium.\nThe antiproliferative activity of compounds of the present invention has been monitored measuring the incorporation of bromodeoxyuridine (BrdU), a thymidine analog of DNA, in newly synthesized DNA after treatment in lung cells. Briefly, NHLFs were seeded in 96-well and treated with different concentrations of Compound 19 and NCT-503 in EMEM medium for 1 h followed by stimulation with Fetal Bovine Serum (FBS) for 72 h at 37° C., 5% CO2. After cell treatments, 10 μl/well BrdU labeling solution was added for incorporation in proliferating cells for 2 h at 37° C., 5% CO2. After removing the culture medium, the cells are fixed, and the DNA is denatured by adding FixDenat followed by incubation with 100 μl/well Anti-BrdU-POD for detection. The reaction product is quantified by measuring the absorbance at the respective wavelength using a scanning multiwell spectrophotometer (ELISA reader)."}
{"compound": "CC(C)C(C(=O)O)c1ccc(C2(NC(=O)c3cc4c(Cl)c(Cl)ccc4n3C)CCOC2)cc1", "note": "(racemic) [Compound 19, (±)-2-(4-(3-(4,5-Dichloro-1-methyl-1H-indole-2-carboxamido)tetrahydro-furan-3-yl)phenyl)-3-methylbutanoic acid]", "values": [{"measurement": "IC50", "setting": "Homo sapiens, NHLF, FBS 72 h, confidence interval in brackets, NA: not active, read-out: FBS induced proliferation (pIC50-C.I.) (converted)", "result": 631, "unit": "nM"}, {"measurement": "cell proliferation induced by serum treatment (FIG. 3)", "setting": "NHLFs, 72 h", "result": "able to reduce the cell proliferation"}]}
